Laboratory results taken from patent publication US5629304A, “Therapeutic agent for thrombocytopenia and indolocarbazole derivatives” (Kyowa Hakko Kogyo Co., Ltd., priority 1994, dated 1997).

Tests used:
[1] = tested on: megakaryocyte colony formation (bone marrow cells); assay: Megakaryocyte colony formation-stimulating activity; format: cell-based, BALB/c mouse; details: control (IL-3 alone) defined as 100, IL-3 100 U/ml, 7 days
Protocol: Megakaryocyte colony formation-stimulating activity
An eight-weeks-old BALB/c mouse was killed. Its femurs and cervical vertebrae were taken out, and both end sections thereof were cut off. Bone marrow cells were collected from the pieces cut off from the femurs and cervical vertebrae using a syringe containing IMDM (430-2200EA prepared by Gibco Co.), and then blown into a test tube. The test tube was allowed to stand for 5 minutes, and the supernatant was collected with a pipet. To a reaction mixture comprising the bone marrow cells (50,000 cells), bovine serum albumin (2%: A4508 made by Sigma Co.), transferrin (600 μg/ml: 652202 made by Boehringer Mannheim Co.), IL-3 (100 U/ml), cholesterol (16 μg/ml: 036-0641 made by Wako Co.) and agar (0.6%: 0142-02 made by Difco Laboratories) were separately added the test compounds at various concentrations, and 1 ml each of the mixtures was put into a 35-mm dish (Lux Co.), followed by incubation under the conditions of 37° C., 5% CO2 and a humidity of 95% or more for 7 days. Separately, IL-3 alone was added to the bone marrow cells to prepare a control. After the incubation was completed, the agar was dried over a filter paper (1001-055 made by Whatman Co.) and then fixed with 2.5% glutaraldehyde, followed by acetylcholinesterase staining (ACHE staining).
The ACHE staining was carried out by the method described below.
ACHE staining: To each sample was added a solution comprising 0.67 mg/ml acetylthiocholine iodide, 2.94 mg/ml sodium citrate, 7.5 mg/ml copper (II) sulfate and 1.65 mg/ml potassium ferricyanide, and the mixture was allowed to stand at room temperature in the dark for 4-6 hours.
A group of 4 or more megakaryocytes which were stained reddish brown was regarded as a colony, and the number of colonies per dish was calculated using a microscope. The results are shown in Table 2 as relative values to the control.

[2] = tested on: platelets; assay: Platelet Production-Stimulating Activity in Mice; format: in vivo, BALB/c mice; details: day 1 to 5, blood on day 15, vs solvent control
Source text: Platelet Production-Stimulating Activity in Mice
A test compound was intraperitoneally administered to four 7-week-old male BALB/c mice per group once a day for consecutive 5 days (day 1 to day 5). A control group (4 mice per group) received only the solvent (5% Tween 80/water). The blood was collected from the fundus oculi vein of each animal on the 15th day from the start of administration (day 15), and the number of the platelets was counted with a microcell counter (Model CC-180A, manufactured by Toa Iryo Denshi Co.). The rate of increase of the number of platelets in the test group (average) over the control (average) was calculated according to the following formula to evaluate the effect of the test compound.
A: the number of platelets in test group
B: the number of platelets in control group

SMILES	Rel. Value (megakaryocyte colonies per dish relative to the control) ([1]; 1 nM)	also measured
CN1Cc2c(c3c4ccccc4n(C)c3c3c2c2ccccc2n3C)C1=O [Compound 9]	128	
CN1Cc2c(c3c4ccccc4n(Cc4ccc(N(C)C)cc4)c3c3c2c2ccccc2n3Cc2ccc(N(C)C)cc2)C1=O [Compound 20]	140	
CN(C)CCCn1c2ccccc2c2c3c(c4c5ccccc5n(C)c4c21)C(=O)N(C)C3=O [Compound 25]		Rate of increase (number of platelets, A/B×100) ([2]; 20 mg/kg i.p. once a day): 151%
CNCCCn1c2ccccc2c2c3c(c4c5ccccc5n(C)c4c21)C(=O)N(C)C3=O [Compound 26]	117	
CCN(CC)CCCn1c2ccccc2c2c3c(c4c5ccccc5n(C)c4c21)C(=O)N(C)C3=O [Compound 27]		Rate of increase (number of platelets, A/B×100) ([2]; 40 mg/kg i.p. once a day): 187%
CCCN(C)CCCn1c2ccccc2c2c3c(c4c5ccccc5n(C)c4c21)C(=O)N(C)C3=O [Compound 31]		Rate of increase (number of platelets, A/B×100) ([2]; 40 mg/kg i.p. once a day): 161%
CN1Cc2c(c3c4ccccc4[nH]c3c3[nH]c4ccccc4c23)C1=O [Compound 80]	111	
C=CCn1c2ccccc2c2c3c(c4c5ccccc5[nH]c4c21)C(=O)N(C)C3=O [Compound 81]		Rel. Value (megakaryocyte colonies per dish relative to the control) ([1]; 10 nM): 113
C=CCn1c2ccccc2c2c3c(c4c5ccccc5n(CC=C)c4c21)C(=O)N(C)C3=O [Compound 82]	101	
CN1C(=O)c2c(c3c4ccccc4n(CC(O)CO)c3c3[nH]c4ccccc4c23)C1=O (stereo not drawn) [Compound 83]	111	
CN1C(=O)c2c(c3c4ccccc4n(CC(O)CO)c3c3c2c2ccccc2n3CC(O)CO)C1=O (stereo not drawn) [Compound 84]		Rel. Value (megakaryocyte colonies per dish relative to the control) ([1]; 10 nM): 132
CCOC(=O)Cn1c2ccccc2c2c3c(c4c5ccccc5n(CC(=O)OCC)c4c21)C(=O)NC3 [Compound 85]	125	
O=C1NCc2c1c1c3ccccc3n(CCCO)c1c1c2c2ccccc2n1CCCO [Compound 86]	131	
O=C1NCc2c1c1c3ccccc3[nH]c1c1c2c2ccccc2n1CCCN1CCOCC1 [Compound 88]	120	
O=C1c2c(c3c4ccccc4[nH]c3c3[nH]c4ccccc4c23)CN1C1CCCCO1 (stereo not drawn) [Compound 89]	110	
O=C1NCc2c1c1c3ccccc3n(Cc3ccccc3)c1c1c2c2ccccc2n1Cc1ccccc1 [Compound 90]		Rel. Value (megakaryocyte colonies per dish relative to the control) ([1]; 10 nM): 106
Cn1c2ccccc2c2c3c(c4c5ccccc5n(C)c4c21)C(=O)NC3 [Compound 91]	111	
CN1C(=O)C(c2c[nH]c3ccccc23)=C(c2c[nH]c3ccccc23)C1=O [Compound 93]	109	
CCN(CC)CCCn1c2ccc(O)cc2c2c3c(c4c5cc(O)ccc5n(C)c4c21)C(=O)N(C)C3=O [Compound 108]		Rate of increase (number of platelets, A/B×100) ([2]; 25 mg/kg i.p. once a day): 179%
CCN(CC)CCCn1c2ccc(Br)cc2c2c3c(c4c5cc(Br)ccc5n(C)c4c21)C(=O)N(C)C3=O [Compound 110]	137	Rate of increase (number of platelets, A/B×100) ([2]; 40 mg/kg i.p. once a day): 184%
